{"source": "paper doi:10.1101/2021.03.27.437323v2", "about": "(biorxiv, 2021)"}
{"target": "SARS-CoV-2 main protease (M^pro; NSP5; 3CL M^pro) (Severe acute respiratory syndrome coronavirus 2, UniProt P0DTD1)", "assay": "biochemical", "details": "read-out: % Residual activity at 20 µM", "units": {"remaining activity at 20 µM": "%"}}
{"smiles": "Cc1ccccc1CC(=O)NC(Cc1ccccc1)c1nc2ccccc2[nH]1", "note": "(stereo not drawn) [MCULE-2322094178]", "remaining activity at 20 µM": 83}
{"smiles": "COc1ccc(-c2[nH]ncc2CNCc2ccccc2C)cc1", "note": "[MCULE-5715268546]", "remaining activity at 20 µM": 83}
{"smiles": "O=C(NC(Cc1ccccc1)c1nc2ccccc2[nH]1)c1cccc(F)c1", "note": "(stereo not drawn) [MCULE-6499664919]", "remaining activity at 20 µM": 83}
